From the supplement of paper PMC10307832

How the values were obtained:
Test in all cases: relative viability (nuclei count vs DMSO), 5 days (fraction); higher = more cells survive
Dactolisib = compound: Cn1c(=O)n(-c2ccc(C(C)(C)C#N)cc2)c2c3cc(-c4cnc5ccccc5c4)ccc3ncc21 [Dactolisib]
Outline: (§1)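 After an overnight hold at 37 °C, lung cancer cell lines in 1536-well plates were pinned with five library-drug doses (not always all listed), each √10 from the next, on vehicle-anchored plates. The cells stayed 5 days without fresh medium, then a one-step fix, permeabilisation and Hoechst stain preceded 4× imaging and MetaXpress nuclear counts. A plate passed only with control CV under 25% and at least one doubling. Viability is the median, over plates, of treated-well nuclei relative to vehicle-well nuclei.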

AZ505 = compound: C1CCC(CC1)N(CCNCCC2=C3C(=C(C=C2)O)NC(=O)CO3)C(=O)CCNCCC4=CC(=C(C=C4)Cl)Cl [AZ505]
Outline: as §1

Dactolisib + Pemetrexed = compound: Cn1c(=O)n(-c2ccc(C(C)(C)C#N)cc2)c2c3cc(-c4cnc5ccccc5c4)ccc3ncc21 [Dactolisib] + Nc1nc2[nH]cc(CCc3ccc(C(=O)N[C@@H](CCC(=O)O)C(=O)O)cc3)c2c(=O)[nH]1 [Pemetrexed] (partner 0.2 µM)
Outline: (§2)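 Cells from lung cancer lines were seeded into 1536-well plates and, one day later, dosed by pin tool. Treatments were either a single drug or a fixed dose of an anchor drug with five library-drug doses (not always all listed) in √10 steps. After 5 days, nuclei were stained in a one-step fixation (final 0.05% Triton X-100, 1% formaldehyde, 1 ug/ml Hoechst) and counted on 4× images, and relative viability is the treated-to-vehicle nuclei ratio, as the median of duplicate plates.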

AZ505 + OSI-027 = compound: C1CCC(CC1)N(CCNCCC2=C3C(=C(C=C2)O)NC(=O)CO3)C(=O)CCNCCC4=CC(=C(C=C4)Cl)Cl [AZ505] + COc1cccc2cc(-c3nc([C@H]4CC[C@H](C(=O)O)CC4)n4ncnc(N)c34)[nH]c12 [OSI-027] (partner 0.5 µM)
Outline: as §2

Row | Cell Line | relative viability (Dactolisib; 0.002 µM) | relative viability (Dactolisib; 0.006325 µM) | relative viability (Dactolisib; 0.02 µM) | relative viability (Dactolisib; 0.06325 µM) | relative viability (Dactolisib; 0.2 µM) | relative viability (AZ505; 0.08 µM) | relative viability (AZ505; 0.253 µM) | relative viability (AZ505; 0.8 µM) | relative viability (AZ505; 2.53 µM) | relative viability (AZ505; 8 µM) | relative viability (Dactolisib + Pemetrexed; first compound 0.002 µM) | relative viability (Dactolisib + Pemetrexed; first compound 0.006325 µM) | relative viability (Dactolisib + Pemetrexed; first compound 0.02 µM) | relative viability (Dactolisib + Pemetrexed; first compound 0.06325 µM) | relative viability (Dactolisib + Pemetrexed; first compound 0.2 µM) | relative viability (AZ505 + OSI-027; first compound 0.08 µM) | relative viability (AZ505 + OSI-027; first compound 0.253 µM) | relative viability (AZ505 + OSI-027; first compound 0.8 µM) | relative viability (AZ505 + OSI-027; first compound 2.53 µM) | relative viability (AZ505 + OSI-027; first compound 8 µM)
1 | HCC-44 | 0.979 | 1.01 | 1.03 | 0.688 | 0.929 | 0.951 | 0.945 | 0.934 | 1.01 | 1.02 | 0.609 | 0.645 | 0.596 | 0.695 | 0.672 | 0.468 | 0.594 | 0.534 | 0.639 | 0.486
2 | HCC-78 | 1.06 | 0.909 | 0.829 | 0.657 | 0.387 | 0.794 | 0.775 | 0.861 | 0.937 | 0.978 | 0.833 | 0.892 | 0.875 | 0.885 | 0.916 | 0.386 | 0.33 | 0.37 | 0.438 | 0.466
3 | HCC-366 | 0.975 | 1.04 | 1.05 | 0.734 | 0.569 | 0.982 | 0.956 | 0.99 | 0.897 | 1.01 | 0.104 | 0.183 | 0.229 | 0.173 | 0.147 | 0.817 | 0.635 | 0.948 | 0.764 | 0.924
4 | HCC-827 | 1.06 | 1.05 | 0.955 | 1.07 | 1.03 | 0.992 | 1.03 | 0.982 | 1.02 | 1.08 | 0.216 | 0.222 | 0.219 | 0.213 | 0.145 | 0.691 | 0.844 | 0.753 | 0.846 | 0.847
5 | HOP-62 | 1.05 | 1.03 | 1.02 | 0.595 | 0.647 | 0.892 | 1.09 | 1.14 | 0.995 | 1.08 | 0.305 | 0.33 | 0.341 | 0.262 | 0.25 | 0.708 | 0.838 | 0.801 | 0.895 | 0.826
6 | IA-LM | 1 | 0.837 | 0.701 | 0.273 | 0.129 | 0.931 | 0.914 | 0.898 | 0.953 | 1.13 |  |  |  |  |  |  |  |  |  | 
7 | LC-2-ad | 1.03 | 0.959 | 1.06 | 0.823 | 0.58 | 0.902 | 0.922 | 1.01 | 1.07 | 0.998 | 0.263 | 0.302 | 0.276 | 0.264 | 0.272 | 0.747 | 0.759 | 0.629 | 0.876 | 0.912
8 | LCLC-97TM1 | 1.01 | 1.02 | 0.9 | 0.802 | 0.388 | 0.893 | 0.838 | 0.897 | 0.759 | 1.06 | 0.169 | 0.158 | 0.186 | 0.192 | 0.16 | 0.389 | 0.335 | 0.495 | 0.395 | 0.644
9 | LCLC-103H | 1.03 | 0.95 | 0.964 | 0.785 | 0.624 | 0.989 | 0.903 | 0.925 | 1.02 | 0.896 | 0.437 | 0.468 | 0.462 | 0.393 | 0.379 | 0.447 | 0.472 | 0.447 | 0.496 | 0.476
10 | LK-2 | 0.905 | 0.877 | 0.846 | 0.433 | 0.253 | 0.974 | 1.17 | 0.941 | 1.09 | 1.11 | 0.278 | 0.263 | 0.249 | 0.117 | 0.171 | 0.238 | 0.206 | 0.232 | 0.229 | 0.2
11 | LOU-NH91 | 0.994 | 0.997 | 0.885 | 0.613 | 0.623 | 0.9 | 0.937 | 0.967 | 0.983 | 1.01 | 0.287 | 0.377 | 0.372 | 0.431 | 0.445 | 0.634 | 0.674 | 0.638 | 0.672 | 0.656
12 | LU99A | 0.93 | 0.904 | 0.766 | 0.429 | 0.31 | 0.782 | 1.02 | 0.979 | 0.813 | 0.944 | 0.152 | 0.197 | 0.2 | 0.178 | 0.18 |  | 0.346 | 0.271 | 0.32 | 0.329
13 | LXF-289 | 1.07 | 1.04 | 1 | 0.998 | 0.84 | 0.967 | 0.98 | 0.988 | 1.02 | 1.01 | 0.921 | 0.886 | 0.964 | 1.02 | 0.619 | 0.701 | 0.748 | 0.763 | 0.668 | 0.959
14 | NCI-H23 | 1.05 | 0.863 | 0.835 | 0.372 | 0.335 | 0.848 |  | 0.874 | 0.995 | 1.12 | 0.635 | 0.635 | 0.563 | 0.289 | 0.296 | 0.54 |  | 0.609 | 0.71 | 0.563
15 | NCI-H727 | 0.839 | 1.02 | 0.9 | 0.487 | 0.414 | 0.836 | 0.879 | 0.864 | 0.654 | 1.11 |  |  |  |  |  | 0.388 | 0.576 | 0.517 |  | 0.651
16 | NCI-H1299 | 1 | 1.05 | 1.02 | 0.769 | 0.885 | 0.981 | 0.968 | 0.969 | 0.948 | 1 |  |  |  |  |  |  |  |  |  | 
17 | NCI-H1623 | 1.14 | 0.968 | 0.918 | 0.531 | 0.402 | 0.894 | 1.03 | 0.984 | 0.937 | 1.04 |  |  |  |  |  | 0.423 | 0.405 | 0.452 | 0.476 | 0.398
18 | NCI-H1703 |  | 0.768 | 0.784 | 0.479 | 0.405 | 0.733 | 0.853 | 1.04 | 1.11 | 1.03 |  |  |  |  |  |  |  |  |  | 
